In patent US10874621B2, “Cationic nanoparticles for co-delivery of nucleic acids and therapeutic agents” (The Brigham and Women's Hospital, Inc., priority 2013, dated 2020):

Test: Solubility of compound 1 in organic solvents
Type: physicochemical
Details: organic solvents like DMSO and dichloromethane (DCM)

cis,cis,trans-[Pt(NH3)2Cl2(OOC(CH2)8CH3)2] [Compound 1]
solubility in organic solvents: sufficiently soluble
